The values below come from PubChem BioAssay (NCI).

Some test systems named below: NCI/ADR-RES ovarian; SK-MEL-5 melanoma; HOP-92 NSCLC; NCI-H460 lung; HCT-116 colon; UACC-62 melanoma; KM12 colon; RPMI-8226 leukemia; SNB-19 CNS; MDA-N.
Holding throughout (experiment): inhibition of tumour cell growth, NCI panel, 48 h

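Cells were grown in 96-well plates and exposed to each compound for 48 hours at five concentrations; endpoints were interpolated linearly between bracketing concentrations, or set to the highest concentration if not reached. TGI denotes the concentration required for complete inhibition of growth.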

Regarding `O=C(N/N=C1/C(=O)c2c3ccccc3cc3cccc1c23)c1ccccc1`, the TGI in the assay with NCI/ADR-RES ovarian was more than 100 µM; with SK-MEL-5 melanoma it was more than 63.2 µM; in the assay on HOP-92 NSCLC, more than 100 µM; with NCI-H460 lung it was more than 100 µM; with HCT-116 colon, more than 84.8 µM; in the assay on UACC-62 melanoma, more than 78.1 µM. The TGI in the assay with KM12 colon was more than 31.6 µM; in the assay on RPMI-8226 leukemia, more than 100 µM; in the assay on SNB-19 CNS, more than 100 µM; in the assay on MDA-N, more than 100 µM.

Turning to `Cc1cn([C@@H]2O[C@H](CO[Si](C)(C)C(C)(C)C)[C@]3(O[C@H]3C(=O)NN)[C@H]2O[Si](C)(C)C(C)(C)C)c(=O)[nH]c1=O`, the TGI is 33 µM with NCI/ADR-RES ovarian; 24 µM in the assay with SK-MEL-5 melanoma; 19.7 µM in the assay with HOP-92 NSCLC; 15.6 µM in the assay with NCI-H460 lung; 13.3 µM in the assay on HCT-116 colon; 24 µM with UACC-62 melanoma. Besides, the TGI in the assay with KM12 colon amounted to 32.6 µM; in the assay with RPMI-8226 leukemia, 9.19 µM; in the assay with SNB-19 CNS, 21.7 µM; in the assay on MDA-N it was 13.3 µM.

Regarding `CC(C)=CCC/C(C)=C/CC/C(C)=C/CC/C(=C/CC/C(C)=C\CC/C(C)=C/CC/C(C)=C/CC/C(C)=C/Cc1cc(O)ccc1O)CO`, the TGI in the assay with NCI/ADR-RES ovarian is 19.4 µM; in the assay on SK-MEL-5 melanoma it was 15.9 µM; with HOP-92 NSCLC it was 31.4 µM; in the assay on NCI-H460 lung, 33 µM; with HCT-116 colon, more than 31.9 µM; with UACC-62 melanoma, 5.17 µM. In addition, the TGI in the assay with KM12 colon was 4.16 µM; in the assay with RPMI-8226 leukemia it was more than 100 µM; in the assay with SNB-19 CNS, more than 100 µM; in the assay on MDA-N, 64.3 µM.

Regarding `O=[N+]([O-])c1cc2c(cc1/C=N/n1c(CO)nc3ccccc31)OCO2`, the TGI in the assay with NCI/ADR-RES ovarian, with SK-MEL-5 melanoma, with HOP-92 NSCLC, in the assay with NCI-H460 lung, in the assay with HCT-116 colon and in the assay on UACC-62 melanoma was more than 100 µM throughout. The TGI in the assay with KM12 colon, in the assay with RPMI-8226 leukemia, in the assay on SNB-19 CNS and with MDA-N was more than 100 µM throughout.

Take `COc1ccc(N2C(=O)C3c4[nH]c5ccc(F)cc5c4C4CCC(c5ccccc5)CC4C3C2=O)cc1` (stereo not given): the TGI in the assay on NCI/ADR-RES ovarian is more than 100 µM; in the assay with SK-MEL-5 melanoma, 54.2 µM; in the assay on HOP-92 NSCLC it was 36.8 µM; with NCI-H460 lung, 46.8 µM; in the assay with HCT-116 colon it was more than 100 µM; with UACC-62 melanoma, 27.6 µM. For the same compound, the TGI was more than 100 µM in the assay with KM12 colon, more than 100 µM with RPMI-8226 leukemia, 27.9 µM with SNB-19 CNS and more than 100 µM in the assay with MDA-N.
